Test results from US20070191402A1, “Method of searching substrate having antidiabetic activity” (KYOWA HAKKO KOGYO CO., LTD., priority 2002, published 2007).

Assays:
MIN6 cell = experiment: Insulin secretion test using MIN6 cell; assay type: cell-based, murine; settings: MIN6 cell; glucose 14.5 mmol/l or 8.4 mmol/l
Protocol: Culturing MIN6 cell and testing insulin secretion using MIN6 cell were carried out according to the method described in Diabetorogia, 36, 1139-1145 (1993).
In other words, the influence of a compound on the insulin secretion activity in the presence of 14.5 mmol/l glucose was assessed by assaying the amount of insulin in the cell culture supernatant collected as follows.
The MIN6 cell cultured in a 24-well plate was washed twice with 1 ml of buffer A [119 mmol/l NaCl, 4.74 mmol/l KCl, 2.54 mmol/l CaCl2, 1.19 mmol/l MgSO4, 1.19 mmol/l KH2PO4, 10 mmol/l 2-[4-(2-hydroxylethyl)-1-piperadinyl]ethanesulfonic acid, 0.1% BSA, pH 7.3] containing 2 mmol/l glucose. Subsequently, the resulting cell was incubated in 1 ml of the buffer A containing 2 mmol/l glucose at 37° C. for 45 minutes. The culture supernatant was exchanged with the buffer A (1 ml) containing test compounds of various concentrations and 8.4 mmol/l glucose and incubated at 37° C. for 45 minutes to collect the culture supernatant.
Antibody-reactive insulin secreted in the culture supernatant was assayed by radioimmunoassay [Methods in Investigative and Diagnostic Endocrinology, Vol. 2A, 2B, North-Holland Publishing Co., Amsterdam (1973)] after the culture supernatant was diluted with phosphate buffer containing 1% BSA, 0.1% Tween 20, 0.12% EDTA 2Na, and 0.1% sodium azide. A standard curve was prepared by using human insulin as the standard substance, and individual insulin values were calculated on the basis of the curve.

p31 protein = target: T1, p31 protein (Mus musculus, UniProt Q99LB2); experiment: Inhibition of binding of p31 protein from MIN6 solubilized membrane fraction to Compound 155-immobilized particle (SDS-PAGE); settings: 500 μmol/l tested substance, band on SDS-PAGE
T1 construct: endogenous in cells; host or cells: MIN6 (murine pancreatic beta cell line), digitonin-solubilized membrane fraction
T1 sequence (Q99LB2 20-279 limits assumed): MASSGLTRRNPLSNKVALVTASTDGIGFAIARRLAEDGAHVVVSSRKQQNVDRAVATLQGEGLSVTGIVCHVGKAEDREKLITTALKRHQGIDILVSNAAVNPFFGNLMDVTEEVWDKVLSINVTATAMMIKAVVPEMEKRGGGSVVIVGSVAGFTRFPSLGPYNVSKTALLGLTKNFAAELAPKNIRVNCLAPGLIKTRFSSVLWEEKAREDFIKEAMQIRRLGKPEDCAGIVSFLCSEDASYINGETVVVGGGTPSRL
Protocol: The solubilized membrane fraction of MIN6 as prepared in Example 12 was 10-fold diluted with the buffer B. The compound represented by Compound No. 16 (hereinafter referred to as “Compound 16”) at 500 μmol/l was added to 1 ml of the resulting dilution and gently stirred at 4° C. for 2 hours. As a control, the solubilized membrane fraction of MIN6 without addition of the Compound 16 was 10-fold diluted with buffer C [20 mmol/l HEPES, pH 7.4, 2 mmol/l EDTA, 150 mmol/l NaCl, 1% digitonin, 1 mmol/l PMSF, 1 μg/ml aprotinin], and 1 ml of the resulting dilution was gently stirred at 4° C. for 2 hours. Then, a particle immobilizing a compound represented by Compound No. 155 (hereinafter referred to as “Compound 155-immobilized particle”) as prepared in Example 8 was added to the solubilized membrane fraction solution with addition of the Compound 16 and the solubilized membrane fraction solution without addition of any tested substance and gently stirred at 4° C. for 30 minutes. Subsequently, the resulting solutions were centrifuged (12,000 rpm, one minute, 4° C.) to precipitate the particle to thereby remove the supernatants. Then, 750 μl of the buffer C was added and stirred for 3 seconds, followed by centrifugation (12,000 rpm, one minute, 4° C.), to precipitate the particle to remove the supernatant. Then, 750 μl of buffer D [20 mmol/l HEPES, pH 7.4, 2 mmol/l EDTA] was added and stirred for 3 seconds, followed by centrifugation (12,000 rpm, one minute, 4° C.), to precipitate the particle to remove the supernatant. Subsequently, 30 μl of an SDS-polyacrylamide gel electrophoresis sample buffer containing β-mercaptoethanol was added to solubilize the protein binding to Compound 155-immobilized particle, followed by SDS-polyacrylamide gel electrophoresis. Through the purification from the cell extract solution by adding Compound 16 via Compound 155-immobilized particle, p31 protein in which its specific binding to Compound 155-immobilized particle was inhibited by the compound represented by Compound No. 16 was found. […]

[1] = test system: pancreatic β cell (MIN6 cell); experiment: Inhibition of binding of [3H]-labeled Compound 16 to pancreatic β cell; parameters: species or system murine; settings: test compound 1 μmol/l; 10 nmol/l [3H]-labeled Compound 16; MIN6 cell, 4° C.
Protocol: MIN6 cell cultured to almost confluence in a 24-well plate for cell culture (manufactured by Corning) was washed twice with KRH buffer (119 mmol/l NaCl, 4.74 mmol/KCl, 2.54 mmol/l calcium chloride (CaCl2), 1.19 mmol/l magnesium sulfate (MgSO4), 1.19 mmol/l potassium dihydrogen phosphate (KH2PO4), 10 mmol/l HEPES, 2 mmol/l glucose, 0.1 w/v % bovine serum albumin (BSA), pH 7.3). Subsequently, the KRH buffer was added at 1 ml per well, for preincubation at 37° C. for 45 minutes. After preincubation, the supernatant was discarded, and 0.15 ml of the KRH buffer, […] at 4° C. for one hour or longer until the reaction reached equilibrium. Subsequently, the cell was washed twice using the KRH buffer. The KRH buffer was added at 2 ml per well, which was then left to stand at room temperature for 20 minutes. The cell was again washed twice by using the KRH buffer. The radioactivity remaining in each well was counted with a liquid scintillation counter to determine the binding amount.
The difference between the binding amount of the [^3H]-labeled Compound 16 (total binding amount) under conditions with no addition of any test compound and the binding amount of the [^3H]-labeled Compound 16 (non-specific binding amount) under conditions in the presence of the Compound 16 at 10 μmol/l was defined as specific binding amount.
According to the method described in Example 5, a substance having anti-diabetic activity was screened for, using the inhibitory activity of the binding between pancreatic β cells and [^3H]-labeled Compound 16. A tested substance was dissolved in dimethylsulfoxide and then added to give a final concentration of 1 μmol/l. The radioactivity with addition of the unlabeled Compound 16 was defined as the non-specific binding amount and the radioactivity without addition of the unlabeled Compound 16 was defined as the total binding amount, and then the individual specific binding amounts were calculated by the method described in Example 6. Using the following formula, the binding inhibition ratio was determined. [formula]

For `CCCN1C(=O)N2CC(Cc3ccccc3)N=C2c2[nH]c(C3CCCC3)nc21` (single isomer, unassigned) [compound 17], the “Insulin secretory activity (%)” value (MIN6 cell) was 15.8%, the “inhibition of the binding of the p31 protein to the Compound 155-immobilized particle” value (p31 protein) was “cannot inhibit the binding of the p31 protein” and the “Binding inhibitory activity (%)” value [1] was 5.4%.
